Measured values taken from ChEMBL document CHEMBL5370570, “HIV-1 Integrase Inhibitor, Dihydroobionin B, and the Investigation of Its Extraordinary Specific Rotation” (J Nat Prod, 2023).
Calls of active or inactive are those of the source. No cut-off for these calls is given here.

How the values were obtained:
Bipolaris oryzae = experiment: Antifungal activity against Bipolaris oryzae at 50 ug assessed as zone of inhibition incubated after 5 days at 25 degreeC by paper disk method; format: functional; conditions: for zone of inhibition at 50 µg/disc: 120 h, time 5 day, read-out: IZ
[1] = biological target: Human immunodeficiency virus type 1 integrase (Human immunodeficiency virus 1, UniProt Q7ZJM1); experiment: Inhibition of HIV-1 integrase expressed in HEK293T co-transfected with CS-II Luci vector incubated for 48 hrs by Bright-Glo luciferase assay; format: cell-based
[2] = Cytotoxicity against human HEK293T cells assessed as reduction in cell viability incubated for 48 hrs by WST assay; format: toxicity, cell-based, HEK-293T; conditions: read-out: LC50

Sequence of Human immunodeficiency virus type 1 integrase (Q7ZJM1 whole entry): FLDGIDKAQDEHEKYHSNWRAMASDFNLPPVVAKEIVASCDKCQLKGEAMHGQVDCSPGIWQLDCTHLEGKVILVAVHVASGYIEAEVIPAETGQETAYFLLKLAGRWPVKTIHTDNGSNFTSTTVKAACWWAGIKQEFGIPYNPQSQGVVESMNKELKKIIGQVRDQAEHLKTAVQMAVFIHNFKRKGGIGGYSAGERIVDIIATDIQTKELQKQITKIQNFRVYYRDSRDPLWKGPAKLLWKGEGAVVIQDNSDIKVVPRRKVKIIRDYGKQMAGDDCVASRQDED

SMILES	zone of inhibition at 50 µg/disc (Bipolaris oryzae)	IC50 [1]	CC50 at 48 h [2]	inhibition zone (IZ) (Bipolaris oryzae; dose 50.0 µg, time 5.0 day)
CCCC/C=C/c1c(OC)cc(=O)oc1C	12 mm	250 µM		
CCCCCCC[C@H]1Cc2cc3c(c(O)c2CO1)C(=O)C(=O)C(OC)=C3		0.44 µM	> 250 µM	inactive
CCCCCCc1c(OC)cc(=O)oc1C	12 mm	15 µM		
CCCCCc1cc(O)c(C)c(O)c1C=O	12 mm	13 µM		
